# From patent publication US20090269794A1, “SCREENING METHOD FOR COMPOUND INHIBITING DEVELOPMENT OR PROGRESSION OF FAMILIAL AMYOTROPHIC LATERAL SCLEROSIS AND DIAGNOSTIC METHOD FOR FAMILIAL AMYOTROPHIC LATERAL SCLEROSIS” (HISAMITSU PHARMACEUTICAL CO., INC., priority 2005, published 2009)
# Key:
# [1] = tested on: NEDL1 mRNA; test: NEDL1 mRNA expression by semi-quantitative RT-PCR in SK-N-BE (2) C cells; type: cell-based, human; details: 250 μM DFO for 24 hours, FIG. 2
# Description: Human neuroblastoma SK-N-BE (2) C cells were cultured in Dulbecco's […] (DMEM) containing 10% heat treated fetal bovine serum (FBS). Hypoxia culturing was carried out in a 2% oxygen concentration, with the cells in a Napco automatic O2/CO2 cell culture apparatus (Waken Co., Ltd.). DFO (Sigma) treatment was carried out by exposing the cells to 250 μM DFO for 24 hours.
# (Reverse Transcription Polymerase Chain Reaction (RT-PCR)) TRIZOL reagent (Invitrogen Corp.) was used according to the manufacturer's manual to prepare total RNA from untreated, hypoxia-treated, DFO-treated cells and the transfected cells. RT-PCR was conducted in the following manner. The prepared total RNA (1 μg/2.5 μL) was incubated at 75° C. for 5 minutes and then allowed to stand on ice for 5 minutes. The prepared RNA was added to a mixture of 0.5 μL RNase inhibitor (40 units/μL, Toyobo, Ltd.), 0.5 μL M-MLV reverse transcriptase (200 units/μL, Invitrogen Corp.), 1 μL 50×dNTPs (2 mM each), 0.5 μL oligo(dT) primer (0.5 mg/mL, Invitrogen Corp.), 2 μL 5×first-strand buffer (Invitrogen Corp.) and 1 μL 0.1 M dithiothreitol, and the mixture was incubated for 10 minutes at room temperature, 45 minutes at 37° C. and 3 minutes at 95° C. to prepare cDNA. The prepared cDNA was used as template with the primers under the following PCR conditions to amplify the NEDL1 and β-actin gene cDNA fragments. […]
# [2] = tested on: HIF-1α; details: cells exposed to DFO, normal oxygen conditions, Non-patent document 12; cited from earlier work
smiles,measurement,setting,value
"CC(=O)N(O)CCCCCNC(=O)CCC(=O)N(O)CCCCCNC(=O)CCC(=O)N(O)CCCCCN [DFO, desferrioxamine]",NEDL1 mRNA expression,[1],increased
same,HIF-1α detection as protein,[2],detected
